Earlier results on 4 molecules are cited in patent US10478388B2, “Skin engaging shaving aid member comprising at least one thermally resilient sensate” (The Gillette Company, priority 2012, dated 2019).

For data set [1] the following is noted: concentration where the cooling effect could be clearly recognized.
The conditions of data set [2]: compared to menthol at 2 ppm.

In the case of `CC(C)[C@@H]1CC[C@@H](C)C[C@@H]1O` [d-neomenthol], in data set [1], the Cooling threshold entry is recorded as “about 25,000 ppb”.
As to `CC(C)[C@@H]1CC[C@@H](C)C[C@H]1C(=O)Nc1ccc(CC#N)cc1` [N-[4-(cyanomethyl)phenyl]-(1R,2S,5R)-2-isopropyl-5-methylcyclohexanecarboxamide], the “Cooling as compared to menthol” value in data set [2] is “about 10 ×”.
As to `CC(C)[C@@H]1CC[C@@H](C)C[C@@H]1O` [Example 1-neomenthol, 1-neomenthol], in data set [1], the Cooling threshold result is “about 3,000 ppb”.
With `CC(C)[C@@H]1CC[C@@H](C)C[C@H]1O` [L-menthol], the Cooling threshold entry in data set [1] is “about 800 ppb”.
